Results on 36 molecules are retold here after US9453014B2, “Cyclic amide derivatives as inhibitors of 11-β-hydroxysteroid dehydrogenase and uses thereof” (CONNEXIOS LIFE SCIENCES PVT. LTD., priority 2011, dated 2016).

Usually IC50 stands for the concentration at which inhibition is half-maximal.

The structures appear in SMILES notation. Some results are limits rather than exact numbers.

The target in the assay is T1, human full length HSD11 β 1 (Homo sapiens, UniProt P28845).
T1 construct: transient expression of human full length HSD11 β 1 expression vector; host or cells: CHO cells (transient transfection)
T1 sequence (P28845 whole entry): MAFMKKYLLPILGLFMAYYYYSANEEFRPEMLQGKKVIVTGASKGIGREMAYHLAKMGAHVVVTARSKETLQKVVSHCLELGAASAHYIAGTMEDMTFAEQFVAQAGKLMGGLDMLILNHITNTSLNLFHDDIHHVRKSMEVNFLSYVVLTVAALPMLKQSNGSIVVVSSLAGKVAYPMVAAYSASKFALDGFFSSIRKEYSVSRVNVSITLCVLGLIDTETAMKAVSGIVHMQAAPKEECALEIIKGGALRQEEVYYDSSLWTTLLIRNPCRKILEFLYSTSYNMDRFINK
The assay is described as follows: In Vitro HSD11β1 Inhibition Assay. It is filed as cell-based. To be noted: CHO cells transiently expressing human HSD11β1; 200 nM cortisone+500 uM NADPH overnight; cortisone to cortisol by LC/MS-MS; read-out: 11βHSD1 (IC50). As for the experimental part: In Vitro HSD11β1 Inhibition Assay:
CHO cells were maintained in Dulbecco's modified Eagle's medium/nutrient mixture F-12 containing 5% fetal bovine serum (v/v) and 2 mM glutamine. Cells were cultured at 37° C. with 5% CO2. For transient expression of human full length HSD11 β 1 expression vector (OriGene Technologies), cells were seeded at a density of 2×10^5 cells/well in a 6-well plate. Transfection was done using Turbofectin8 reagent (OriGene Technologies), according to the protocol provided with the reagent. After 24 hours post-transfection, cells were trypsinized and pooled together before they were re-seeding to 96-well plate at a density of 40000 cells/well. 24 hours after re-seeding, cells were incubated with 200 nM cortisone+500 uM NADPH (or along with small molecule inhibitors) overnight. The enzymatic activity or inhibition of enzyme activity was measured by estimating the conversion of cortisone to cortisol by LC/MS-MS method. The IC50 in nM was calculated from an 8 point log scale of concentration versus inhibition.
With `O=C(O)C1CCN(C(=O)CC(c2ccccc2)c2c[nH]c3cccc(F)c23)C2CCCCC12` (single isomer, unassigned) [Example 162, 1-[3-(4-fluoro-1H-indol-3-yl)-3-phenylpropanoyl]decahydroquinoline-4-carboxylic acid], the half-inhibitory concentration (IC50) was > 0.25 µM. Next, `O=C(CCc1cn(S(=O)(=O)c2ccccc2)c2ccccc12)N1CCCC2CCCCC21` (stereo not drawn) [Compound 51, 1-(octahydroquinolin-1(2H)-yl)-3-[1-(phenylsulfonyl)-1H-indol-3-yl]propan-1-one]: > 0.25 µM. As for `CC1CCC2CCCCC2N1C(=O)CCc1c[nH]c2cc(F)ccc12` (stereo not drawn) [Compound 40, 3-(6-fluoro-1H-indol-3-yl)-1-(2-methyloctahydroquinolin-1(2H)-yl)propan-1-one], the concentration for half-maximal inhibition (IC50) is > 0.25 µM. The same measure for `Cc1ccc2[nH]cc(C(C)CC(=O)N3CCCC4C(C(=O)O)CCCC43)c2c1Cl` (stereo not drawn) [Compound 203, 1-[3-(4-chloro-5-methyl-1H-indol-3-yl)butanoyl]decahydroquinoline-5-carboxylic acid]: > 0.25 µM; for `O=C(O)C1CCN(C(=O)CC(c2ccccc2)c2c[nH]c3cc(F)ccc23)C2CCCCC12` (single isomer, unassigned) [Example 160, 1-[3-(6-fluoro-1H-indol-3-yl)-3-phenylpropanoyl]decahydroquinoline-4-carboxylic acid]: > 0.25 µM. Consider `Cc1cccc2c1nnn2C(C)CC(=O)N1CCC(C(=O)O)C2CCCCC21` (stereo not drawn) [Example 168, 1-[3-(4-methyl-1H-benzotriazol-1-yl)butanoyl]decahydroquinoline-4-carboxylic acid], for which the IC50 was > 0.25 µM. Next, `CC(C)(c1c[nH]c2ccccc12)C(C#N)C(=O)N1CCCC2CCCCC21` (stereo not drawn) [Example 110, 3-(1H-indol-3-yl)-3-methyl-2-(octahydroquinolin-1(2H)-ylcarbonyl)butanenitrile]: > 0.25 µM.

Take `O=C(CCc1c[nH]c2ccccc12)N1CCO[C@@H]2CCCCC21` (stereo partly drawn) [Compound 61, 3-(1H-indol-3-yl)-1-[(trans-4a,8a)-octahydro-4H-1,4-benzoxazin-4-yl]propan-1-one]: the half-maximal inhibitory concentration (IC50) was > 0.25 µM. Next, `CC(CC(=O)N1C(C)CCC2C(C(=O)O)CCCC21)c1c[nH]c2cccc(C3CC3)c12` (stereo not drawn) [Compound 230, 1-[3-(4-cyclopropyl-1H-indol-3-yl)butanoyl]-2-methyldecahydroquinolin-5-carboxylic acid]: 0.15 to 0.2 µM. Next, `O=C(CCc1c[nH]c2ccccc12)N1CCCCC2CCCCC21` (stereo not drawn) [Compound 54, 1-(decahydro-1H-1-benzazepin-1-yl)-3-(1H-indol-3-yl)propan-1-one]: > 0.25 µM. With `O=C(O)C1CCN(C(=O)CC(c2ccccc2)c2nc3ccccc3s2)C2CCCCC12` (stereo not drawn) [Example 152, 1-[3-(1,3-benzothiazol-2-yl)-3-phenylpropanoyl]decahydroquinoline-4-carboxylic acid], the IC50 is > 0.25 µM. Next, `CC1CCC2CCCCC2N1C(=O)CCc1c[nH]c2ncccc12` (stereo not drawn) [Example 86, 1-(2-methyloctahydroquinolin-1(2H)-yl)-3-(1H-pyrrolo[2,3-b]pyridin-3-yl)propan-1-one]: < 0.1 µM; `CC(CC(=O)N1CCC(=O)C2CCCCC21)c1c[nH]c2ccccc12` (stereo not drawn) [Example 103, 1-[3-(1H-indol-3-yl)butanoyl]octahydroquinolin-4(1H)-one]: > 0.25 µM. Next, `CC(CC(=O)N1CCCC2C(C(=O)O)CCCC21)c1cn(C)c2cccc(-c3ccco3)c12` (stereo not drawn) [Compound 216, 1-{3-[4-(furan-2-yl)-1-methyl-1H-indol-3-yl]butanoyl}decahydroquinoline-5-carboxylic acid]: < 0.1 µM. In the case of `O=C(CCc1c[nH]c2ccc(O)cc12)N1CCCC2CCCCC21` (stereo not drawn) [Compound 15, 3-(5-hydroxy-1H-indol-3-yl)-1-(octahydroquinolin-1(2H)-yl)propan-1-one], the IC50 fell in the range of 0.1 to 0.15 µM. The same measure for `COc1ccc2[nH]cc(CCC(=O)N3CCCC4CCCCC43)c2c1` (stereo not drawn) [Compound 7, 3-(5-methoxy-1 fi-indol-3-yl)-1-(octahydroquinolin-1 (2H)-yl)propan-1-one]: > 0.25 µM; for `CC(CC(=O)N1CCCC2CCCCC21)c1nc2c(Cl)cccc2s1` (stereo not drawn) [Example 173, 3-(4-chloro-1,3-benzothiazol-2-yl)-1-(octahydroquinolin-1(2H)-yl)butan-1-one]: < 0.1 µM. The same measure for `CC(CC(=O)N1CCCC2CC(C(=O)O)CCC21)c1c[nH]c2cccc(Cl)c12` (stereo not drawn) [Compound 228, 1-[3-(4-chloro-1H-indol-3-yl)butanoyl]decahydroquinoline-6-carboxylic acid]: > 0.25 µM; for `COc1cccc2[nH]cc(C(C)CC(=O)N3CCCC4C(C(=O)O)CCCC43)c12` (stereo not drawn) [Compound 264, 1-[3-(4-methoxy-1H-indol-3-yl)butanoyl]decahydroquinoline-5-carboxylic acid]: > 0.25 µM; for `CC(C)C(CC(=O)N1CCCC2CCCCC21)c1c[nH]c2ncccc12` (stereo not drawn) [Example 164, 4-methyl-1-(octahydroquinolin-1(2H)-yl)-3-(1H-pyrrolo[2,3-b]pyridin-3-yl)pentan-1-one]: 0.1 to 0.15 µM. The same measure for `CC(CC(=O)N1CCO[C@H]2CCCCC21)c1c[nH]c2cccc(F)c12` (single isomer, unassigned) [Example 139, 3-(4-fluoro-1H-indol-3-yl)-1-[cis-(4a,8a)-octahydro-4H-1,4-benzoxazin-4-yl]butan-1-one]: 0.1 to 0.15 µM. For the molecule `CC(CC(=O)N1CCCC2(CO)CCCCC12)c1c[nH]c2nccc(Cl)c12` (stereo not drawn) [Example 147, 3-(4-chloro-1H-pyrrolo[2,3-b]pyridin-3-yl)-1-[4a-(hydroxymethyl)octahydroquinolin-1(2H)-yl]butan-1-one], the IC50 was > 0.25 µM. Next, `CC(C)C(CC(=O)N1CCCC2(C)CCCCC12)c1c[nH]c2cccc(F)c12` (single isomer, unassigned) [Example 116, 3-(4-fluoro-1H-indol-3-yl)-4-methyl-1-(4a-methyloctahydroquinolin-1(2H)-yl)pentan-1-one]: > 0.25 µM; `CC(CC(=O)N1CCCC2C(C(=O)O)CCCC21)c1c[nH]c2cccc(-c3ccco3)c12` (stereo not drawn) [Compound 222, 1-{3-[4-(furan-2-yl)-1H-indol-3-yl]butanoyl}decahydroquinoline-5-carboxylic acid]: 0.1 to 0.15 µM. Next, `CC(CC(=O)N1CCCC2C(C(=O)O)CCCC21)c1c[nH]c2cccc(-c3ccccc3F)c12` (stereo not drawn) [Compound 257, 1-{3-[4-(2-fluorophenyl)-1H-indol-3-yl]butanoyl}decahydroquinoline-5-carboxylic acid]: 0.1 to 0.15 µM; `O=C(O)C1CCC2CCCCC2N1C(=O)CC(c1cccs1)c1c[nH]c2cccc(F)c12` (stereo not drawn) [Example 170, 1-[3-(4-fluoro-1H-indol-3-yl)-3-(thiophen-2-yl)propanoyl]decahydroquinoline-2-carboxylic acid]: > 0.25 µM; `N#C/C(=C\c1c[nH]c2ccccc12)C(=O)N1CCCC2CCCCC21` (stereo not drawn) [Compound 31, (2E)-3-(1H-indol-3-yl)-2-(octahydroquinolin-1(2H)-ylcarbonyl)prop-2-enenitrile]: > 0.25 µM. The same measure for `Cc1cccc2c1nnn2C(CC(=O)N1CCCC2CCCCC21)C(C)C` (stereo not drawn) [Example 172, 4-methyl-3-(4-methyl-1H-benzotriazol-1-yl)-1-(octahydroquinolin-1(2H)-yl)pentan-1-one]: > 0.25 µM; for `O=C(CCc1c[nH]c2ccccc12)N1CCC2CCCCC2C1` (stereo not drawn) [Compound 21, 3-(1H-indol-3-yl)-1-(octahydroisoquinolin-2(1H)-yl)propan-1-one]: > 0.25 µM. With `O=C(O)C1CCN(C(=O)CC(c2ccccc2)c2c[nH]c3cccc(Cl)c23)C2CCCCC12` (stereo not drawn) [Example 155, 1-[3-(4-chloro-1H-indol-3-yl)-3-phenylpropanoyl]decahydroquinoline-4-carboxylic acid], the IC50 is > 0.25 µM.

For `Cc1cccc2c1c(CCC(=O)N1CC(C)OC3CCCCC31)cn2C` (stereo not drawn) [Compound 69, 3-(1,4-dimethyl-1H-indol-3-yl)-1-(2-methyloctahydro-4H-1,4-benzoxazin-4-yl)propan-1-one], the half-inhibitory concentration (IC50) is > 0.25 µM.

In the case of `CC(CC(=O)N1CCC(C(=O)O)C2CCCCC21)c1c[nH]c2cccc(Cl)c12` (stereo not drawn) [Example 158, 1-[3-(4-chloro-1H-indol-3-yl)butanoyl]decahydroquinoline-4-carboxylic acid], the IC50 was > 0.25 µM. The same measure for `O=C(CCc1cc2ccccc2[nH]1)N1CCCC2CCCCC21` (stereo not drawn) [Compound 14, 3-(1H-indol-2-yl)-1-(octahydroquinolin-1(2H)-yl)propan-1-one]: > 0.25 µM. `CC(CC(=O)N1CCCC2C(C(=O)O)CCCC21)c1cn(C2CC2)c2cccc(Cl)c12` (stereo not drawn) [Compound 261, 1-[3-(4-chloro-1-cyclopropyl-1H-indol-3-yl)butanoyl]decahydroquinoline-5-carboxylic acid]: the half-inhibitory concentration (IC50) lay in the range of 0.2 to 0.25 µM. Next, `Cc1cccc2c1c(CCC(=O)N1CCOC3CCCCC31)cn2C` (stereo not drawn) [Compound 60, 3-(1,4-dimethyl-1H-indol-3-yl)-1-(octahydro-4H-1,4-benzoxazin-4-yl)propan-1-one]: < 0.1 µM; `O=C(CCc1c[nH]c2cccc(F)c12)N1CCCC2CCCCC21` (stereo not drawn) [Compound 44, 3-(4-fluoro-1H-indol-3-yl)-1-(octahydroquinolin-1(2H)-yl)propan-1-one]: < 0.1 µM.
